From ChEMBL document CHEMBL3885861, “Open TG-GATES”

Species: Rattus norvegicus
Assay: Open TG-GATES - Regimen: Daily Repeat
Format: toxicity, organism-based, Sprague-Dawley
Design: regimen Daily Repeat, gender Male, age 6 weeks
Conditions: in vivo, po, route gavage; for APTT / Bas / Eos / Hb / Ht / Lym / MCH / MCHC / MCV / Mono / PT / Plat / RBC / Ret / WBC / Neu: tissue Blood; for KIDNEY_L / KIDNEY_R / KIDNEY_TOTAL: tissue Kidney; for LIVER: tissue Liver; for ALT / AST / BUN / CRE / Ca / DBIL / GLC / IP / K / LDH / Na / PL / RALB / TBIL / TC / TP / gamma-GTP / TG / ALP: tissue Plasma
[1] = 0 mg/kg, 72 h, dose level Control, time 3 day
[2] = 0 mg/kg, […], dose level Control, time 7 day
[3] = 0 mg/kg, […], dose level Control, time 14 day
[4] = 0 mg/kg, […], dose level Control, time 28 day
[5] = 100 mg/kg, 72 h, dose level Low, time 3 day
[6] = 100 mg/kg, […], dose level Low, time 7 day
[7] = 100 mg/kg, […], dose level Low, time 14 day
[8] = 100 mg/kg, […], dose level Low, time 28 day
[9] = 300 mg/kg, 72 h, dose level Middle, time 3 day

C[C@H](CS)C(=O)N1CCC[C@H]1C(=O)O [CAPTOPRIL]
TERMINAL_BW [1]: 245.5 g
APTT [1]: 16.1 s
Bas [1]: 0%
Eos [1]: 1.2%
Hb [1]: 13.4 g/dL
Ht [1]: 41%
Lym [1]: 82.8%
MCH [1]: 21.5 pg
MCHC [1]: 32.7%
MCV [1]: 65.6 fL
Mono [1]: 5.8%
PT [1]: 11.3 s
Plat [1]: 117.3 x10_4/uL
RBC [1]: 625 x10_4/ul
Ret [1]: 7.6%
WBC [1]: 119.1 x10_2/uL
KIDNEY_L [1]: 1.1 g
KIDNEY_R [1]: 1.1 g
KIDNEY_TOTAL [1]: 2.2 g
LIVER [1]: 11.9 g
ALT [1]: 40.4 IU/L
AST [1]: 64.8 IU/L
BUN [1]: 17.6 mg/dL
CRE [1]: 0.5 mg/dL
Ca [1]: 11.3 mg/dL
DBIL [1]: 0.016 mg/dL
GLC [1]: 197.6 mg/dL
IP [1]: 8.9 mg/dL
K [1]: 4.8 meq/L
LDH [1]: 86.2 IU/L
Na [1]: 139 meq/L
PL [1]: 142.4 mg/dL
RALB [1]: 3.8 g/dL
TBIL [1]: 0.4 mg/dL
TC [1]: 70.6 mg/dL
TP [1]: 5.7 g/dL
gamma-GTP [1]: 1.2 IU/L
TERMINAL_BW [2]: 274 g
TERMINAL_BW [3]: 333.4 g
TERMINAL_BW [4]: 402.1 g
APTT [2]: 16.6 s
Bas [2]: 0%
Eos [2]: 0.8%
Hb [2]: 13.8 g/dL
Ht [2]: 41.7%
Lym [2]: 83%
MCH [2]: 21.1 pg
MCHC [2]: 33.1%
MCV [2]: 63.9 fL
Mono [2]: 4%
Neu [2]: 12.4%
Plat [2]: 113.7 x10_4/uL
RBC [2]: 653.4 x10_4/ul
Ret [2]: 6.1%
WBC [2]: 144.9 x10_2/uL
APTT [3]: 16.9 s
Bas [3]: 0%
Eos [3]: 1%
Hb [3]: 14.3 g/dL
Ht [3]: 43.1%
Lym [3]: 80.8%
MCH [3]: 20.5 pg
MCHC [3]: 33.1%
MCV [3]: 62.1 fL
Mono [3]: 6%
Neu [3]: 12.4%
PT [3]: 11.4 s
Plat [3]: 112.4 x10_4/uL
RBC [3]: 694.8 x10_4/ul
Ret [3]: 4.1%
WBC [3]: 122.3 x10_2/uL
APTT [4]: 16.7 s
Bas [4]: 0%
Eos [4]: 1%
Hb [4]: 14.5 g/dL
Ht [4]: 43.7%
Lym [4]: 86.8%
MCH [4]: 19 pg
MCHC [4]: 33.1%
MCV [4]: 57.4 fL
Mono [4]: 4.4%
Neu [4]: 7.8%
PT [4]: 11.9 s
RBC [4]: 761.8 x10_4/ul
Ret [4]: 2.5%
WBC [4]: 154.2 x10_2/uL
KIDNEY_L [2]: 1.1 g
KIDNEY_R [2]: 1.1 g
KIDNEY_TOTAL [2]: 2.3 g
KIDNEY_L [3]: 1.3 g
KIDNEY_R [3]: 1.3 g
KIDNEY_TOTAL [3]: 2.6 g
KIDNEY_L [4]: 1.4 g
KIDNEY_R [4]: 1.4 g
KIDNEY_TOTAL [4]: 2.9 g
LIVER [2]: 13 g
LIVER [3]: 15.7 g
LIVER [4]: 17 g
ALT [2]: 37.8 IU/L
AST [2]: 62 IU/L
BUN [2]: 18.8 mg/dL
CRE [2]: 0.6 mg/dL
DBIL [2]: 0.002 mg/dL
GLC [2]: 198 mg/dL
IP [2]: 8.1 mg/dL
K [2]: 4.9 meq/L
LDH [2]: 72.4 IU/L
Na [2]: 141.4 meq/L
PL [2]: 132.2 mg/dL
RALB [2]: 3.8 g/dL
TBIL [2]: 0.3 mg/dL
TC [2]: 65.2 mg/dL
TG [2]: 79.8 mg/dL
TP [2]: 5.8 g/dL
gamma-GTP [2]: 1.2 IU/L
ALP [3]: 916.4 IU/L
ALT [3]: 32.6 IU/L
AST [3]: 60.2 IU/L
BUN [3]: 17.8 mg/dL
CRE [3]: 0.5 mg/dL
DBIL [3]: 0 mg/dL
GLC [3]: 202.6 mg/dL
IP [3]: 8.1 mg/dL
K [3]: 4.5 meq/L
LDH [3]: 76.8 IU/L
Na [3]: 139.4 meq/L
PL [3]: 169.6 mg/dL
RALB [3]: 3.9 g/dL
TBIL [3]: 0.3 mg/dL
TC [3]: 85.4 mg/dL
TG [3]: 152 mg/dL
TP [3]: 6 g/dL
gamma-GTP [3]: 1.2 IU/L
ALP [4]: 633 IU/L
ALT [4]: 31.4 IU/L
AST [4]: 58 IU/L
BUN [4]: 20.4 mg/dL
CRE [4]: 0.6 mg/dL
DBIL [4]: 0.026 mg/dL
GLC [4]: 213.6 mg/dL
IP [4]: 7.7 mg/dL
K [4]: 4.3 meq/L
LDH [4]: 110.2 IU/L
Na [4]: 139.8 meq/L
PL [4]: 150 mg/dL
RALB [4]: 3.9 g/dL
TBIL [4]: 0.3 mg/dL
TC [4]: 69.2 mg/dL
TG [4]: 142.4 mg/dL
TP [4]: 6.1 g/dL
gamma-GTP [4]: 0.6 IU/L
TERMINAL_BW [5]: 236.5 g
APTT [5]: 16.5 s
Bas [5]: 0%
Eos [5]: 1%
Hb [5]: 13.6 g/dL
Ht [5]: 41.2%
Lym [5]: 79.6%
MCH [5]: 21.6 pg
MCHC [5]: 33.1%
MCV [5]: 65.3 fL
Mono [5]: 8.4%
Neu [5]: 11.4%
PT [5]: 11.2 s
Plat [5]: 120 x10_4/uL
RBC [5]: 632.2 x10_4/ul
Ret [5]: 7.1%
WBC [5]: 121.4 x10_2/uL
KIDNEY_L [5]: 0.9 g
KIDNEY_R [5]: 1 g
KIDNEY_TOTAL [5]: 1.9 g
LIVER [5]: 11.7 g
ALP [5]: 857.2 IU/L
ALT [5]: 40.4 IU/L
AST [5]: 67 IU/L
BUN [5]: 21.2 mg/dL
CRE [5]: 0.5 mg/dL
Ca [5]: 11.4 mg/dL
DBIL [5]: 0.01 mg/dL
GLC [5]: 193.6 mg/dL
IP [5]: 8.4 mg/dL
K [5]: 5 meq/L
LDH [5]: 116.8 IU/L
Na [5]: 138.4 meq/L
PL [5]: 150.6 mg/dL
RALB [5]: 4.2 g/dL
TBIL [5]: 0.3 mg/dL
TC [5]: 81 mg/dL
TP [5]: 6.1 g/dL
gamma-GTP [5]: 1.4 IU/L
TERMINAL_BW [6]: 261.5 g
TERMINAL_BW [7]: 305.1 g
TERMINAL_BW [8]: 346.2 g
APTT [6]: 15.6 s
Bas [6]: 0%
Eos [6]: 0.6%
Hb [6]: 13.8 g/dL
Ht [6]: 41.4%
Lym [6]: 84%
MCH [6]: 20.7 pg
MCHC [6]: 33.2%
MCV [6]: 62.4 fL
Mono [6]: 4.8%
Plat [6]: 134.3 x10_4/uL
RBC [6]: 664.8 x10_4/ul
Ret [6]: 4.9%
WBC [6]: 139.3 x10_2/uL
APTT [7]: 16.9 s
Bas [7]: 0%
Eos [7]: 1.2%
Hb [7]: 14.2 g/dL
Ht [7]: 42.9%
Lym [7]: 77%
MCH [7]: 19.9 pg
MCHC [7]: 33.2%
MCV [7]: 60 fL
Mono [7]: 7.6%
Neu [7]: 14.4%
PT [7]: 11.6 s
RBC [7]: 717 x10_4/ul
Ret [7]: 3.5%
WBC [7]: 93.7 x10_2/uL
APTT [8]: 15.9 s
Bas [8]: 0%
Eos [8]: 1.2%
Hb [8]: 14.8 g/dL
Ht [8]: 44.8%
Lym [8]: 83.4%
MCH [8]: 18.8 pg
MCHC [8]: 33.1%
MCV [8]: 56.6 fL
Mono [8]: 5.4%
PT [8]: 11.7 s
RBC [8]: 790.8 x10_4/ul
Ret [8]: 2.4%
WBC [8]: 131.2 x10_2/uL
KIDNEY_L [6]: 1.1 g
KIDNEY_R [6]: 1.2 g
KIDNEY_TOTAL [6]: 2.3 g
KIDNEY_L [7]: 1.2 g
KIDNEY_R [7]: 1.3 g
KIDNEY_TOTAL [7]: 2.5 g
KIDNEY_L [8]: 1.4 g
KIDNEY_R [8]: 1.4 g
KIDNEY_TOTAL [8]: 2.8 g
LIVER [6]: 12.3 g
LIVER [7]: 13.8 g
LIVER [8]: 13.8 g
ALT [6]: 40.8 IU/L
AST [6]: 67.6 IU/L
BUN [6]: 20 mg/dL
CRE [6]: 0.5 mg/dL
DBIL [6]: 0.002 mg/dL
GLC [6]: 203.8 mg/dL
IP [6]: 8.2 mg/dL
K [6]: 5.1 meq/L
LDH [6]: 77 IU/L
Na [6]: 139.2 meq/L
PL [6]: 144.2 mg/dL
RALB [6]: 4 g/dL
TBIL [6]: 0.3 mg/dL
TC [6]: 74.6 mg/dL
TG [6]: 83.6 mg/dL
TP [6]: 6 g/dL
gamma-GTP [6]: 1.8 IU/L
ALP [7]: 862.6 IU/L
ALT [7]: 32.8 IU/L
AST [7]: 61.2 IU/L
BUN [7]: 22.2 mg/dL
CRE [7]: 0.5 mg/dL
DBIL [7]: 0 mg/dL
GLC [7]: 197.6 mg/dL
IP [7]: 7.8 mg/dL
K [7]: 4.8 meq/L
LDH [7]: 85 IU/L
Na [7]: 138.2 meq/L
PL [7]: 151.6 mg/dL
RALB [7]: 4.1 g/dL
TBIL [7]: 0.3 mg/dL
TC [7]: 72.6 mg/dL
TP [7]: 6.1 g/dL
gamma-GTP [7]: 0.8 IU/L
ALP [8]: 701.4 IU/L
ALT [8]: 36.6 IU/L
AST [8]: 65.8 IU/L
BUN [8]: 22.6 mg/dL
CRE [8]: 0.5 mg/dL
DBIL [8]: 0.02 mg/dL
GLC [8]: 194 mg/dL
IP [8]: 7.5 mg/dL
K [8]: 4.9 meq/L
LDH [8]: 116.8 IU/L
Na [8]: 137.2 meq/L
PL [8]: 148.4 mg/dL
RALB [8]: 4.1 g/dL
TBIL [8]: 0.3 mg/dL
TC [8]: 72.8 mg/dL
TG [8]: 114.6 mg/dL
TP [8]: 6.2 g/dL
gamma-GTP [8]: 0.8 IU/L
TERMINAL_BW [9]: 239.8 g
APTT [9]: 16.2 s
Bas [9]: 0%
